Measurements reported in PubChem BioAssay AID652280 (Broad Institute, 2013).
Results filed as inconclusive are left out. The source made the active and inactive calls. The rule behind the calls is not given here.

test: mouse embryonic fibroblast toxicity – cell-based, plate reader, dry powder, set 2, cytotoxicity control, dose response (AID 652280); conditions: NIH/3T3 mouse fibroblast toxicity, plate reader; at 16 µM (top of the series)

Question: With Cc1ccc(CN(C)C[C@H]2Oc3c(NC(=O)c4ccncc4)cccc3C(=O)N([C@@H](C)CO)C[C@@H]2C)cc1 as the compound, how does the activity change, negative = toxicity read?
Answer: -16.5% (inactive)

Question: For CC(C)N1CC2(CN(Cc3ccccc3)C2)Oc2c(NC(=O)c3ccncc3)cccc2C1=O, which activity change, negative = toxicity is on record?
Answer: -2.24% (inactive)

Question: For CC(C)N1CC2(CN(C(=O)OC(C)(C)C)C2)Oc2c(NC(=O)c3ccncc3)cccc2C1=O, which activity change, negative = toxicity is on record?
Answer: -9.89% (inactive)

Question: For COCCNC(=O)c1cc2c(c(-c3cccc(C#CCN(C)C)c3)n1)[C@@H](CCO)N(S(=O)C(C)(C)C)C2 (some centres undefined), which activity change, negative = toxicity is on record?
Answer: 5.61% (inactive)

Question: Which activity change, negative = toxicity does the source give for COC[C@H](C)N1C[C@H](C)[C@@H](CN(C)Cc2ccc(Oc3ccccc3)cc2)Oc2c(NC(=O)c3ccncc3)cccc2C1=O here?
Answer: 128% (inactive)

Question: With CC(C)N1C[C@H](CN)Oc2c(NC(=O)c3ccncc3)cccc2C1=O as the compound, how does the activity change, negative = toxicity read?
Answer: 4.38% (inactive)

Question: For COc1ccc(S(=O)(=O)N(C)C[C@H]2OCCCC[C@@H](C)Oc3ccc(N(C)C)cc3C(=O)N([C@H](C)CO)C[C@@H]2C)cc1, which activity change, negative = toxicity is on record?
Answer: 12.3% (inactive)

Question: With CC(C)N1C[C@@H](C)[C@H](CN(C)Cc2ccc(Oc3ccccc3)cc2)Oc2c(cccc2N(C)C(=O)c2ccncc2)C1=O as the compound, how does the activity change, negative = toxicity read?
Answer: -4.89% (inactive)

Question: For CN(C)CC#Cc1cccc(-c2nc(C(=O)O)cc3c2[C@H](CCO)N(S(=O)C(C)(C)C)C3)c1 (some centres undefined), which activity change, negative = toxicity is on record?
Answer: -1.94% (inactive)

Question: With CCOC(=O)c1cc2c(c(-c3cccc(C#CCN(C)C)c3)n1)[C@H](CCO)N(S(=O)C(C)(C)C)C2 (some centres undefined) as the compound, how does the activity change, negative = toxicity read?
Answer: -9.39% (inactive)

Question: With CC(C)N1C[C@@H](CN(C)Cc2ccc(Cl)cc2)Oc2c(C(=O)Nc3ccnnc3)cccc2C1=O as the compound, how does the activity change, negative = toxicity read?
Answer: -4.49% (inactive)

Question: With CN(C)CC#Cc1cccc(-c2nc(C(=O)NCCCN3CCOCC3)cc3c2[C@H](CCO)N(S(=O)C(C)(C)C)C3)c1 (some centres undefined) as the compound, how does the activity change, negative = toxicity read?
Answer: 16% (inactive)

Question: Which activity change, negative = toxicity does the source give for C[C@H]1CN([C@@H](C)CO)C(=O)c2cccc(NC(=O)c3ccncc3)c2O[C@@H]1CN(C)Cc1ccc(F)c(Cl)c1 here?
Answer: -32.5% (inactive)

Question: Which activity change, negative = toxicity does the source give for CC(C)N1C[C@H](C)[C@@H](CN(C)Cc2ccc(Cl)c(Cl)c2)Oc2c(cccc2-c2nn[nH]n2)C1=O here?
Answer: -0.771% (inactive)

Question: With C[C@@H]1CN([C@@H](C)CO)C(=O)c2cc(Br)cnc2O[C@H]1CN(C)Cc1ccc2c(c1)OCO2 as the compound, how does the activity change, negative = toxicity read?
Answer: -12% (inactive)

Question: With CN(C)C(=O)c1cccc(-c2ccc([C@H]3[C@@H](CO)N4CCCCN(C(=O)C5CCC5)C[C@@H]34)cc2)c1 as the compound, how does the activity change, negative = toxicity read?
Answer: 1.53% (inactive)

Question: With CCN(C)C[C@H]1Oc2c(NC(=O)c3ccncc3)cccc2C(=O)N(C(C)C)[C@@H]1C as the compound, how does the activity change, negative = toxicity read?
Answer: -7.46% (inactive)

Question: Which activity change, negative = toxicity does the source give for CC(C)N1CC[C@H](CN(C)Cc2ccc(Oc3ccccc3)cc2)Oc2c(NC(=O)c3ccncc3)cccc2C1=O here?
Answer: -22.1% (inactive)

Question: With CC(C)N1CC2(CN(Cc3ccc(F)cc3)C2)Oc2c(NC(=O)c3ccncc3)cccc2C1=O as the compound, how does the activity change, negative = toxicity read?
Answer: -0.418% (inactive)

Question: With CC(C)N1CC2(CN(Cc3ccc(F)c(F)c3)C2)Oc2c(NC(=O)c3ccncc3)cccc2C1=O as the compound, how does the activity change, negative = toxicity read?
Answer: -3.93% (inactive)

Question: With CC(c1ccc(Cl)cc1)N1CC2(C1)CN(C(C)C)C(=O)c1cccc(NC(=O)c3ccncc3)c1O2 (centres undefined) as the compound, how does the activity change, negative = toxicity read?
Answer: 6.05% (inactive)

Question: With COc1ccc(CCN(C)C(=O)C2CCCN(Cc3ccc(OC)c(OC)c3)C2)cc1OC (centres undefined) as the compound, how does the activity change, negative = toxicity read?
Answer: 6.14% (inactive)

Question: Which activity change, negative = toxicity does the source give for C[C@@H]1CCCCO[C@H](CN(C)Cc2ccc(Cl)c(Cl)c2)[C@@H](C)CN([C@H](C)CO)C(=O)c2cc(N(C)C)ccc2O1 here?
Answer: 82.1% (inactive)

Question: Which activity change, negative = toxicity does the source give for CC(C)(C)S(=O)N1Cc2cc(C(=O)NCc3ccc4c(c3)OCO4)nc(-c3cccc(C#CCC4CCCC4)c3)c2[C@@H]1CCO (some centres undefined) here?
Answer: 83.4% (inactive)

Question: With CC(C)N1C[C@@H](CN(C)CCc2ccc(Cl)cc2)Oc2c(NC(=O)c3ccncc3)cccc2C1=O as the compound, how does the activity change, negative = toxicity read?
Answer: -32% (inactive)

Question: Which activity change, negative = toxicity does the source give for CC(C)N1C[C@@H](C)[C@H](CN(C)C(=O)OC(C)(C)C)Oc2c(C#N)cccc2C1=O here?
Answer: -6.53% (inactive)

Question: For O=C(Cc1ccccn1)N1CCCCN2[C@@H](CO)[C@H](c3ccc(-c4ccccc4)cc3)[C@@H]2C1, which activity change, negative = toxicity is on record?
Answer: -15.8% (inactive)

Question: For CN(C)C(=O)c1cccc(-c2ccc([C@@H]3[C@@H](CO)N4CCCCN(C(=O)C5CCC5)C[C@@H]34)cc2)c1, which activity change, negative = toxicity is on record?
Answer: 0.445% (inactive)

Question: With CC(C)N1C[C@@H](CN)Oc2c(NC(=O)c3ccncc3)cccc2C1=O as the compound, how does the activity change, negative = toxicity read?
Answer: 22.7% (inactive)

Question: Which activity change, negative = toxicity does the source give for C[C@H]1CN([C@@H](C)CO)C(=O)c2cccc(NC(=O)c3ccncc3)c2O[C@@H]1CN(C)Cc1cccc(C(F)(F)F)c1 here?
Answer: -10.7% (inactive)

Question: With CN(C)CC(=O)N1CCCCN2[C@@H](CO)[C@H](c3ccc(-c4cccnc4)cc3)[C@@H]2C1 as the compound, how does the activity change, negative = toxicity read?
Answer: 0.846% (inactive)

Question: For CC(C)N1C[C@@H](C)[C@H](CN(C)Cc2ccc(Oc3ccccc3)cc2)Oc2c(C(=O)O)cccc2C1=O, which activity change, negative = toxicity is on record?
Answer: 9.6% (inactive)

Question: With C[C@@H]1CN([C@H](C)CO)C(=O)c2cccc(NC(=O)c3ccncc3)c2O[C@H]1CN(C)Cc1ccc2c(c1)OCO2 as the compound, how does the activity change, negative = toxicity read?
Answer: -14.9% (inactive)

Question: With C[C@@H]1CN([C@@H](C)CO)C(=O)c2cc(-c3cncnc3)cnc2O[C@H]1CN(C)Cc1ccc(Oc2ccccc2)cc1 as the compound, how does the activity change, negative = toxicity read?
Answer: -26.5% (inactive)

Question: Which activity change, negative = toxicity does the source give for C[C@H]1CN([C@@H](C)CO)C(=O)c2cccc(NC(=O)c3ccncc3)c2O[C@@H]1CN(C)Cc1ccc(Cl)c(F)c1 here?
Answer: -25.3% (inactive)

Question: Which activity change, negative = toxicity does the source give for CC(C)N1CC2(CN(Cc3ccc(Cl)cc3)C2)Oc2c(NC(=O)c3ccncc3)cccc2C1=O here?
Answer: -2.46% (inactive)

Question: With CN(C)CC#Cc1cccc(-c2nc(C(=O)NCc3ccc(Oc4ccccc4)cc3)cc3c2[C@@H](CCO)N(S(=O)C(C)(C)C)C3)c1 (some centres undefined) as the compound, how does the activity change, negative = toxicity read?
Answer: 31.3% (inactive)

Question: With C[C@H]1CN([C@@H](C)CO)C(=O)c2cccc(NC(=O)c3ccncc3)c2O[C@@H]1CN(C)Cc1cc(Cl)ccc1Cl as the compound, how does the activity change, negative = toxicity read?
Answer: 3.82% (inactive)

Question: Which activity change, negative = toxicity does the source give for O=C(CN1CCOCC1)N1CCCCN2[C@@H](CO)[C@H](c3ccc(-c4ccccc4)cc3)[C@@H]2C1 here?
Answer: -1.37% (inactive)

Question: For C[C@@H](CO)N1CC[C@H](CNC(=O)OC(C)(C)C)Oc2c(NC(=O)c3ccncc3)cccc2C1=O, which activity change, negative = toxicity is on record?
Answer: 2.74% (inactive)

Question: For CC(C)N1C[C@@H](C)[C@H](CN(C)C(=O)OC(C)(C)C)Oc2c(C(N)=O)cccc2C1=O, which activity change, negative = toxicity is on record?
Answer: 12.8% (inactive)

Question: Which activity change, negative = toxicity does the source give for CC(C)N1C[C@@H](C)[C@H](CN(C)C(=O)OC(C)(C)C)Oc2c(C(=O)O)cccc2C1=O here?
Answer: 14.1% (inactive)

Question: With C[C@H]1CN([C@@H](C)CO)C(=O)c2cccc(NC(=O)c3ccncc3)c2O[C@@H]1CN(C)Cc1ccccc1Cl as the compound, how does the activity change, negative = toxicity read?
Answer: -7.97% (inactive)

Question: Which activity change, negative = toxicity does the source give for CC(C)N1C[C@H](C)[C@@H](CN(C)Cc2ccc(Oc3ccccc3)cc2)Oc2c(cccc2-c2nn[nH]n2)C1=O here?
Answer: 28.7% (inactive)

Question: With CN(C)CC#Cc1cccc(-c2nc(C(=O)NCc3ccc4c(c3)OCO4)cc3c2[C@H](CCO)N(S(=O)C(C)(C)C)C3)c1 (some centres undefined) as the compound, how does the activity change, negative = toxicity read?
Answer: 6.62% (inactive)

Question: With CCC(=O)N1CC[C@@H]2[C@H]1c1cc(-c3ccccc3)ccc1N(C)[C@@H]2CO as the compound, how does the activity change, negative = toxicity read?
Answer: -26.5% (inactive)

Question: For CC(C)(C)S(=O)N1Cc2cc(C(=O)NCc3ccc4c(c3)OCO4)nc(-c3cccc(-c4cccc(F)c4)c3)c2[C@@H]1CCO (some centres undefined), which activity change, negative = toxicity is on record?
Answer: -21.2% (inactive)

Question: For CC(C)N1C[C@H](CNCc2ccc(Cl)cc2)Oc2c(NC(=O)c3ccncc3)cccc2C1=O, which activity change, negative = toxicity is on record?
Answer: -20.3% (inactive)

Question: With C[C@H]1CN([C@@H](C)CO)C(=O)c2cccc(NC(=O)c3ccncc3)c2O[C@@H]1CN(C)Cc1ccc(Cl)cc1Cl as the compound, how does the activity change, negative = toxicity read?
Answer: -13.3% (inactive)

Question: With C[C@@H]1CN([C@@H](C)CO)C(=O)c2cccc(NC(=O)c3ccncc3)c2O[C@H]1CN(C)Cc1cccc(Cl)c1 as the compound, how does the activity change, negative = toxicity read?
Answer: -5.45% (inactive)

Question: With COCCNC(=O)c1cc2c(c(-c3cccc(C#CCN(C)C)c3)n1)[C@H](CCO)N(S(=O)C(C)(C)C)C2 (some centres undefined) as the compound, how does the activity change, negative = toxicity read?
Answer: 20.8% (inactive)

Question: Which activity change, negative = toxicity does the source give for C[C@@H](CO)N1CC[C@H](CNC(=O)OC(C)(C)C)Oc2c(cccc2[N+](=O)[O-])C1=O here?
Answer: 16.7% (inactive)

Question: Which activity change, negative = toxicity does the source give for CN(C)C(=O)c1cccc(-c2ccc([C@H]3[C@H]4CN(C(=O)C5CCC5)CCCCN4[C@H]3CO)cc2)c1 here?
Answer: 24.3% (inactive)

Question: For CN(C)CC#Cc1cccc(-c2nc(C(=O)N3CCN(C)CC3)cc3c2[C@@H](CCO)N(S(=O)C(C)(C)C)C3)c1 (some centres undefined), which activity change, negative = toxicity is on record?
Answer: 18.9% (inactive)

Question: With Cc1cccc(-c2ccc([C@H]3[C@H](CO)N4CCCCN(C(=O)c5ccncc5)C[C@@H]34)cc2)c1 as the compound, how does the activity change, negative = toxicity read?
Answer: -19.7% (inactive)

Question: For CNC[C@@H]1Oc2c(NC(=O)c3ccncc3)cccc2C(=O)N(C(C)C)C[C@H]1C, which activity change, negative = toxicity is on record?
Answer: 1.96% (inactive)

Question: With CC(C)(O)C#Cc1cccc(-c2nc(C(=O)NCc3ccc4c(c3)OCO4)cc3c2[C@H](CCO)N(S(=O)C(C)(C)C)C3)c1 (some centres undefined) as the compound, how does the activity change, negative = toxicity read?
Answer: -19.2% (inactive)

Question: For COc1ccccc1CN(C)C[C@H]1Oc2c(NC(=O)c3ccncc3)cccc2C(=O)N([C@@H](C)CO)C[C@@H]1C, which activity change, negative = toxicity is on record?
Answer: -28.8% (inactive)

Question: With O=C(CN1CCOCC1)N1CCCCN2[C@@H](CO)[C@H](c3ccc(Br)cc3)[C@@H]2C1 as the compound, how does the activity change, negative = toxicity read?
Answer: 2.42% (inactive)

Question: Which activity change, negative = toxicity does the source give for CN(C)C(=O)c1ccc(-c2ccc([C@H]3[C@H](CO)N4CCCCN(Cc5cncnc5)C[C@@H]34)cc2)cc1 here?
Answer: 10.1% (inactive)

Question: With C[C@@H]1CCCCO[C@H](CN(C)C(=O)Nc2cccc3ccccc23)[C@@H](C)CN([C@H](C)CO)C(=O)c2cc(N(C)C)ccc2O1 as the compound, how does the activity change, negative = toxicity read?
Answer: -0.649% (inactive)

Question: Which activity change, negative = toxicity does the source give for Cc1ccccc1-c1ccc([C@H]2[C@H](CO)N3CCCCN(C(=O)c4cccnc4)C[C@@H]23)cc1 here?
Answer: -15% (inactive)

Question: For C[C@H]1CN([C@@H](C)CO)C(=O)c2cccc(NC(=O)c3ccncc3)c2O[C@@H]1CN(C)Cc1ccccc1C(F)(F)F, which activity change, negative = toxicity is on record?
Answer: 14.1% (inactive)

same assay, conditions: NIH/3T3 mouse fibroblast toxicity, plate reader; at 18 µM (top of the series)

Question: With Cc1ccc(S(=O)(=O)N(C)C[C@H]2OCCCC[C@@H](C)Oc3ccc(N(C)C)cc3C(=O)N([C@H](C)CO)C[C@@H]2C)cc1 as the compound, how does the activity change, negative = toxicity read?
Answer: 25.8% (inactive)
